From PMC9186412, “Rational Framework for the Design of Trp- and Arg-Rich Peptide Antibiotics Against Multidrug-Resistant Bacteria” (Frontiers in Microbiology, 2022)
Read-outs that look alike come from different tables or passages of the source.

Columns and labels:
Enterobacter spp = test: microbe, parasite or virus in culture; type: cell-based, Enterobacter spp (aerogenes, cloacae); settings: Enterobacter, 18 h, UPMC, MHB2, 18 h, 37°C
Procedure: (§1) Bacterial clinical isolates, used for initial screening and in previous studies ([Deslouches et al., 2013]; [Lin et al., 2018]), were anonymously provided by the clinical microbiology laboratory of the University of Pittsburgh medical Center. The panel used for secondary screening was from [CDC (2013)] (Supplementary Table 3), with resistance profiles data. Bacteria are stored in lock-secured –80°C freezer and typically retrieved by obtaining single colonies on agar plates prior for subsequent liquid broth cultures. Suspensions of test bacteria were prepared from log phase of growth by diluting overnight cultures at 1:100 with fresh cation-adjusted MHB (MHB2, Millipore Sigma, United States) and incubating for additional 3–4 h. Bacteria were spun at 3,000 × g for 10 min and the pellet resuspended in test condition media (Millipore Sigma, United States) to determine bacterial turbidity using a Den-1B densitometer (Grant Instruments, United States) at 0.5 McFarland (unit of bacterial density) corresponding to […].
(§2) To examine antibacterial activity, we used minor modifications of a standard growth inhibition assay endorsed by the Clinical and Laboratory Standards Institute (CLSI), as previously described ([Deslouches et al., 2013]). Bacteria were incubated with each of the indicated peptides in MHB2. The bacterial cells were kept in an incubator for 18 h at 37°C, which is linked to a robotic system that feeds a plate reader every hour with one of 8 × 96-well plates. This set-up allows the collection of growth kinetic data at A 570 (absorbance at 570 nm) to examine growth inhibition in real time (BioTek Instruments, United States). […] The assays are typically repeated a second time. If the MIC is different, a third experimental trial is performed to confirm the MIC. To assess bactericidal properties of the peptide, the assay was modified by using 15% fetal bovine serum (FBS, for a more physiologically relevant test condition) mixed with 25% MHB2 and 60% PBS. Bacterial cells (colony forming unit/mL or CFU/mL) were enumerated after incubating treated bacteria for 3 h and plating serially diluted samples on broth agar medium at 37°C overnight. Minimum bactericidal concentration (MBC) was determined as the peptide concentration at which complete bacterial killing was observed. […] Data were analyzed using GraphPad Prism software.

A. baumannii = test: microbe, parasite or virus in culture; type: cell-based, Acinetobacter baumannii; settings: Acinetobacter baumannii, 18 h, MHB2, 18 h, 37°C
Procedure: as §1, §2

E. coli = test: microbe, parasite or virus in culture; type: cell-based, Escherichia coli; settings: Escherichia coli, 18 h, MHB2, 18 h, 37°C
Procedure: as §1, §2

CDC AR isolates = system: CDC AR isolates; set-up: key: S (green), susceptible; I (blue), intermediate; R (red), resistant; settings: data provided by the CDC, ref CDC, cited from earlier work
Description: Supplement Table_3.XLSX, sheet "CDC AR isolates profiles" | column: G(-) strains

P. aeruginosa = test: microbe, parasite or virus in culture; type: cell-based, Pseudomonas aeruginosa; settings: Pseudomonas aeruginosa, MHB2, 18 h, 37°C
Procedure: as §1, §2

K. pneumoniae = test: microbe, parasite or virus in culture; type: cell-based, Klebsiella pneumoniae; settings: Klebsiella pneumoniae, 18 h, MHB2, 18 h, 37°C
Procedure: as §1, §2

NC[C@H]1O[C@H](O[C@H]2[C@H](O)[C@@H](O[C@H]3O[C@H](CO)[C@@H](O)[C@H](N)[C@H]3O)[C@H](N)C[C@@H]2N)[C@H](N)C[C@@H]1O [Tobramycin, reference compound]
1 µM: MIC (P. aeruginosa; 18 h, strain PA01)
0.5 µM: MIC (A. baumannii; strain AB-A2, UPMC clinical strain, A570, confirmed by 2nd or 3rd trial) | MIC (P. aeruginosa; PA14, 18 h, strain PA14)
16 µM: MIC (A. baumannii; strain AB-A3, UPMC) | MIC (E. coli; strain YDC748, UPMC) | MIC (P. aeruginosa; 18 h, strain PA129-5, UPMC)
R: Antibiotic susceptibility profile (CDC AR isolates; Acinetobacter baumannii AB273, CDC AR isolate) | Antibiotic susceptibility profile (CDC AR isolates; Acinetobacter baumannii AB275, CDC AR isolate) | Antibiotic susceptibility profile (CDC AR isolates; Acinetobacter baumannii AB276, CDC AR isolate) | Antibiotic susceptibility profile (CDC AR isolates; Enterobacter cloacae E62, CDC AR isolate) | Antibiotic susceptibility profile (CDC AR isolates; Escherichia coli EC541, CDC AR isolate) | Antibiotic susceptibility profile (CDC AR isolates; Escherichia coli EC543, CDC AR isolate) | Antibiotic susceptibility profile (CDC AR isolates; Escherichia coli EC544, CDC AR isolate) | Antibiotic susceptibility profile (CDC AR isolates; Escherichia coli EC549, CDC AR isolate) | Antibiotic susceptibility profile (CDC AR isolates; Klebsiella pneumoniae KP542, CDC AR isolate) | Antibiotic susceptibility profile (CDC AR isolates; Klebsiella pneumoniae KP550, CDC AR isolate) | Antibiotic susceptibility profile (CDC AR isolates; Klebsiella pneumoniae KP552, CDC AR isolate) | Antibiotic susceptibility profile (CDC AR isolates; Pseudomonas aeruginosa PA230, CDC AR isolate) | Antibiotic susceptibility profile (CDC AR isolates; Pseudomonas aeruginosa PA231, CDC AR isolate) | Antibiotic susceptibility profile (CDC AR isolates; Pseudomonas aeruginosa PA232, CDC AR isolate) | Antibiotic susceptibility profile (CDC AR isolates; Pseudomonas aeruginosa PA239, CDC AR isolate)
> 16 µM: MIC (Enterobacter spp; strain EA518 (aerogenes)) | MIC (Enterobacter spp; strain EA596 (aerogenes)) | MIC (Enterobacter spp; strain EC560 (cloacae)) | MIC (A. baumannii; strain AB-F8, UPMC) | MIC (E. coli; strain YDC337, UPMC) | MIC (P. aeruginosa; 18 h, strain PA97-5, UPMC) | MIC (K. pneumoniae; strain KPA5 (colistin-resistant), UPMC) | MIC (K. pneumoniae; strain KPB3, UPMC)
S: Antibiotic susceptibility profile (CDC AR isolates; Acinetobacter baumannii AB274, CDC AR isolate) | Antibiotic susceptibility profile (CDC AR isolates; Klebsiella pneumoniae KP548, CDC AR isolate) | Antibiotic susceptibility profile (CDC AR isolates; Pseudomonas aeruginosa PA229, CDC AR isolate)
2 µM: MIC (A. baumannii; strain AB-F9, UPMC)
4 µM: MIC (Enterobacter spp; strain EC470 (cloacae))
